The values below come from article PMC12250763, “Synergistic and Antagonistic Mechanisms of Arctium lappa L. Polyphenols on Human Neutrophil Elastase Inhibition: Insights from Molecular Docking and Enzymatic Kinetics” (Molecules, 2025).

This test deals with T1, human neutrophil elastase (HNE) (Homo sapiens, UniProt P08246).
T1 construct: gene ELANE
T1 sequence (P08246 30-247): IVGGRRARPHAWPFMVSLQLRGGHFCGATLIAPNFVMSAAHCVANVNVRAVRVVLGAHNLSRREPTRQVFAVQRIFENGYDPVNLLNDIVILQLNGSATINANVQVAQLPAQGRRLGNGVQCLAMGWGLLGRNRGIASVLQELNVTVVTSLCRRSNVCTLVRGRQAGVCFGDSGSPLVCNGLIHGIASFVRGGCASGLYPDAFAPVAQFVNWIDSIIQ
As to the kind of experiment: chromogenic elastase assay (MeOSuc-AAPV-pNA, […] nm), dose-response. Type of test: biochemical.

As a reminder, the IC50 is the concentration that inhibits the measured activity by half. A high value points to a need for much substance. `O=C(/C=C/c1ccc(O)c(O)c1)O[C@@H]1C[C@](O)(C(=O)O)C[C@@H](O)[C@H]1O` [Cha, chlorogenic acid] displayed an IC50 of 203 µM.

Consider `O=C(/C=C/c1ccc(O)c(O)c1)O[C@@H]1C[C@](O)(C(=O)O)C[C@@H](OC(=O)/C=C/c2ccc(O)c(O)c2)[C@H]1O` [Iso A, isochlorogenic acid A], for which the IC50 worked out at 171 µM.
